Values quoted from earlier work, collected in US20070160663A1, “Single unit pharmaceutical composition comprising a mixture of fenofibrate and a modified release form of a homocysteine reducing agent” (GALEPHAR PHARMACEUTICAL RESEARCH, INC., priority 2003, published 2007).

In the case of `Nc1nc2ncc(CNc3ccc(C(=O)N[C@@H](CCC(=O)O)C(=O)O)cc3)nc2c(=O)[nH]1` [folic acid], the elimination half-life (in vivo) is given as 3 h.
For `CC(C)OC(=O)C(C)(C)Oc1ccc(C(=O)c2ccc(Cl)cc2)cc1` [Fenofibrate, p-(4-chlorobenzoyl)-phenoxy isobutyrate isopropyl ester], the Tmax (after oral administration) is listed as 3 to 6 h.
For `CC(C)(Oc1ccc(C(=O)c2ccc(Cl)cc2)cc1)C(=O)O` [Fenofibric acid], the “Tmax (time to peak plasma level)” value (after oral administration of a conventional marketed form such as Lipanthyl tablet or Fenogal capsule) is listed as 3 to 6 h.
